Data from PubChem BioAssay (NCI).
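All cell lines were grown in 96-well plates and treated with compound for 48 hours. TGI denotes the concentration required for complete inhibition of growth.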

Key:
Assay in all cases: NCI-60 cell line screen, 48 h
EKVX NSCLC = tested on: EKVX NSCLC
TK-10 renal = tested on: TK-10 renal
U251 CNS = tested on: U251 CNS
UACC-257 melanoma = tested on: UACC-257 melanoma
M14 melanoma = tested on: M14 melanoma
UO-31 renal = tested on: UO-31 renal
NCI/ADR-RES ovarian = tested on: NCI/ADR-RES ovarian
OVCAR-5 ovarian = tested on: OVCAR-5 ovarian
SNB-19 CNS = tested on: SNB-19 CNS
HCC-2998 colon = tested on: HCC-2998 colon
T-47D breast = tested on: T-47D breast
BT-549 breast = tested on: BT-549 breast
MALME-3M melanoma = tested on: MALME-3M melanoma
SK-OV-3 ovarian = tested on: SK-OV-3 ovarian
SW-620 colon = tested on: SW-620 colon
DU-145 prostate = tested on: DU-145 prostate
RXF 393 renal = tested on: RXF 393 renal
SK-MEL-2 melanoma = tested on: SK-MEL-2 melanoma
786-0 renal = tested on: 786-0 renal
KM12 colon = tested on: KM12 colon

Structure (SMILES)	TGI (EKVX NSCLC)	TGI (TK-10 renal)	TGI (U251 CNS)	TGI (UACC-257 melanoma)	TGI (M14 melanoma)	TGI (UO-31 renal)	TGI (NCI/ADR-RES ovarian)	TGI (OVCAR-5 ovarian)	TGI (SNB-19 CNS)	TGI (HCC-2998 colon)	TGI (T-47D breast)	TGI (BT-549 breast)	TGI (MALME-3M melanoma)	TGI (SK-OV-3 ovarian)	TGI (SW-620 colon)	TGI (DU-145 prostate)	TGI (RXF 393 renal)	TGI (SK-MEL-2 melanoma)	TGI (786-0 renal)	TGI (KM12 colon)
COC(=O)CNS(=O)(=O)c1ccc(-c2c3nc(c(-c4ccc(S(=O)(=O)NCC(=O)OC)cc4)c4ccc([nH]4)c(-c4ccc(S(=O)(=O)NCC(=O)OC)cc4)c4nc(c(-c5ccc(S(=O)(=O)NCC(=O)OC)cc5)c5ccc2[nH]5)C=C4)C=C3)cc1	> 100 µM	> 100 µM	> 100 µM	> 100 µM	41.9 µM	> 100 µM	> 100 µM	> 100 µM	> 100 µM	> 100 µM	> 100 µM	> 100 µM	> 100 µM	> 100 µM	> 100 µM	> 100 µM	> 100 µM	> 100 µM	> 100 µM	> 100 µM
CN(C)CCN(C)c1ccc2c(=O)n(CCN(C)C)c(=O)n3c4ccccc4c(=O)c1c23	6.92 µM	5.43 µM	8.93 µM	4.73 µM	6.68 µM	2.62 µM	16.9 µM	12.1 µM	9.7 µM	2.05 µM	9.77 µM	15 µM	3 µM	16.7 µM	8.34 µM	1.3 µM	11.2 µM	6.84 µM	10.2 µM	8.08 µM
C/C=C\C(CC(=O)NCCC1CN(S(=O)(=O)c2ccc(C)cc2)c2ccccc21)CC(=O)OC (stereo not drawn)	> 100 µM	> 100 µM	> 100 µM	> 100 µM	> 100 µM	> 100 µM	> 100 µM	> 100 µM	> 100 µM	> 100 µM	> 100 µM	> 100 µM	> 100 µM	> 100 µM	> 100 µM	> 100 µM	> 100 µM	> 100 µM	> 100 µM	> 100 µM
Cc1cc(N(CCC#N)CCC#N)ccc1/C(N=Nc1ccc(C(=O)O)cc1)=N\NC(=O)c1cc(Cl)ccc1O	> 100 µM	> 100 µM	63.1 µM	> 100 µM	> 100 µM	68 µM	> 100 µM	> 100 µM	55.9 µM	> 100 µM	> 100 µM	> 100 µM	> 100 µM	64.5 µM	–	> 100 µM	78.9 µM	> 100 µM	39.8 µM	> 100 µM
Cc1ccc(NC2=CC(=O)C(NO)c3ccccc32)cc1 (stereo not drawn)	8.57 µM	62.7 µM	11.9 µM	3.84 µM	11.4 µM	12.2 µM	5.81 µM	25 µM	11.5 µM	25.8 µM	7.63 µM	26.4 µM	–	46.6 µM	> 100 µM	7.41 µM	12.7 µM	8.99 µM	17.4 µM	20.2 µM
COc1cc(-c2cc(-c3ccccc3)nc(-c3c(OC)ccc4c(C)cc(=O)oc34)c2)cc(OC)c1OC	> 100 µM	> 100 µM	> 100 µM	> 100 µM	> 100 µM	> 100 µM	> 100 µM	–	> 100 µM	> 100 µM	> 100 µM	> 100 µM	> 100 µM	> 100 µM	> 100 µM	> 100 µM	> 100 µM	> 100 µM	> 100 µM	> 100 µM
N#CC(=C1CCN(CCCC(=O)c2ccc(F)cc2)CC1)c1ccccc1	> 100 µM	> 100 µM	> 100 µM	> 100 µM	–	> 100 µM	> 100 µM	> 100 µM	> 100 µM	> 100 µM	> 100 µM	> 100 µM	> 100 µM	> 100 µM	> 100 µM	> 100 µM	> 100 µM	> 100 µM	> 100 µM	> 100 µM
Cn1c2ccc3cc2c(=S)c2cc(ccc21)OCCOCCOCCOCCOCCO3	> 10 µM	> 10 µM	> 10 µM	> 10 µM	> 10 µM	–	> 10 µM	> 10 µM	> 10 µM	> 10 µM	> 10 µM	> 10 µM	> 10 µM	> 10 µM	> 10 µM	> 10 µM	> 10 µM	> 10 µM	> 10 µM	> 10 µM
Cc1nn(C(=O)c2ccc(Cl)cc2)c2c1C(c1ccccc1[N+](=O)[O-])SC(N)=N2 (stereo not drawn)	> 10 µM	> 10 µM	> 10 µM	> 10 µM	> 10 µM	–	> 10 µM	> 10 µM	> 10 µM	> 10 µM	> 10 µM	> 10 µM	> 10 µM	> 10 µM	> 10 µM	> 10 µM	2.25 µM	> 10 µM	> 10 µM	> 10 µM
Clc1cc(Cl)cc(C=NC23CC4CC(CC(C4)C2)C3)c1	> 10 µM	> 10 µM	> 10 µM	> 10 µM	> 10 µM	–	> 10 µM	> 10 µM	> 10 µM	> 10 µM	> 10 µM	> 10 µM	> 10 µM	> 10 µM	> 10 µM	> 10 µM	> 10 µM	> 10 µM	> 10 µM	> 10 µM
